From US5783449A (priority 1996, dated 1998)

How the values were obtained:
[1] = clinical; conditions: in vivo
Text: Even though ethanol elimination begins at very outset of consumption, formally the process breaks out from an apex into a pharmacokinetical curve--the break point of a neutralizing reaction against extreme absorption-distribution action.
AUCabs-distr is the absorption-distribution of ethanol and is equal to the AUC under the ascending part of the curve;
AUCpostabs +AUCdistr is a sum of the postabsorption and distribution of ethanol and is equal to the AUC between the ascending and descending part of the plotted curve. Because most pharmacokinetical cases have a triangle-like shape for the curve, it obviously has no value. However, if the value occurs (in a case with a trapezium-like shape for the curve) it disregards from calculation, because proportional representation for this internal rectangular-like composite AUC is the same as the Index-K value;
and AUCelim is the elimination of ethanol and is equal to the AUC under the descending part of the pharmacokinetical curve.
(§1) To verify the results, after ethanol consumption, BAC levels were repeatedly measured by INTOXIMETER EC/IR 3000, until two successive zero BAC measurements were obtained. […] A special electrochemical membrane measured oxidation by transdermal ethanol. The resulting current measured is expressed in micro Amperes (μA) and was automatically multiplied by 35 for TAS#37; by 40 for TAS#34, TAS#39, or by 45 for TAS#33 depending on type of construction for the device.
BAC tests were conducted on 83 volunteer individuals, 48 of whom were non-alcoholic males, 27 of whom were non-alcoholic females and 8 of whom were alcoholic males.
This dose was divided into three equal parts.
(§2) The BAC readings used in tables 1 and 2 were obtained using breath samples taken with the INTOXIMETER EC/IR 3000 made by Intoximeters, Inc. of St. Louis, Mo. This device has a rated accuracy of ±0.001 (1 mg/dl). The machine was reprogrammed to increase ethanol values by five percent from factory settings to more accurately reflect actual BAC.

[2] = in vivo
Protocol: as §2

[3] = in vivo; remark: listed apart in the source
Text: as §1

[4] = test system: Microsomal Ethanol-Oxidation System (MEOS); conditions: human body; stated as well known; cited from earlier work

- Time to peak ([1]; human, po): 66 '
- peak in the BAC ([1]; human, po): 68.2 (s.d.=8.98)
- Cmax ([1]; human, po, peak in the BAC): 697 µg/mL
- ratio of Index-K between alcoholic and non-alcoholic drinkers [1]: about twice
- blood/breath ratio [2]: 0.994
- Index-K (range over methods) [3]: 1.9-1.97
- variation in the amplitude of the curves [3]: 2.7 fold
- variation of the elimination time [3]: 1.9 fold
- variation of the time to peak [3]: 1.7 fold
SMILES: CCO [alcohol, ethanol]
- fraction of consumed alcohol destroyed by MEOS [4]: approximately one-fifth
